The record followed here is patent US10471048B2, “Thienopyridine derivative for the treatment of hepatitis C infections” (Cipla (UK) Limited, priority 2015, dated 2019).

For series [1], the system named is HCV GT1b CON-1 replicon. Description: HCV replicon assay (antiviral activity). Type of series: cell-based, Hepatitis C virus. The note with it: In vitro HCV replicon assay. The source says: The HCV replicon antiviral evaluation assay examines the effects of compound at six serial dilutions. Human interferon alpha-2b (rIFNα-2b) and Sofosbuvir are included in each run as a positive control compound.
In general terms: A replicon is a self-replicating genome or part of one, used to study replication in cells.

Series [2] concerns cell culture-derived HCV (HCVcc). Description: microbe, parasite or virus in culture. Format: cell-based, Hepatitis C virus.
Description: (§1) Huh7.5 cells are grown in Dulbecco's modified essential media (DMEM), 10% fetal bovine serum (FBS), 1% penicillin-streptomycin (pen-strep), 1% Non-essential amino acids (NEAA) in a 5% CO2 incubator at 37° C. Huh7.5 cells are seeded at 1×10^4 cells per well into 96-well plates according to Southern Research Institute standard format. Test articles are serially diluted with DMEM plus 5% FBS. The diluted compound in the amount of 50 μl is mixed with equal volume of cell culture-derived HCV (HCVcc), then applied to appropriate wells in the plate. Human interferon alpha-2b (rIFNα-2b) and/or Sofosbuvir are included as a positive control. After 72 hr incubation at 37° C., the cells are lysed for measurement of luciferase activity using Renilla Luciferase Assay System (Promega) according to manufacturer's instruction. The number of cells in each well is determined by CytoTox-1 reagent (Promega).
The nature of series [3]: HCV replicon assay, cell viability (CytoTox-1). The note with it: human, Huh7 hepatoma cells containing a subgenomic HCV replicon.
Description: We use the subgenomic HCV replicons of genotype 1a (H77 strain), 1b (Con1 strain), and 2a (JFH-1 strain), which are Huh7 human hepatoma cell lines that contains an HCV replicon.
Briefly, the replicon cells are plated at 5,000 cells/well into 96-well plates that are dedicated for the analysis of cell numbers (cytotoxicity) or antiviral activity. On the following day, samples are diluted with assay media and added to the appropriate wells. Cells are processed 72 hours later when the cells are still sub-confluent. […] The concentration of drug that reduces cell viability is assessed by the fluorometric CytoTox-1 cell proliferation assay (Promega), (expressed as cell numbers). […] Where applicable EC50 (concentration inhibiting HCV replicon by 50%), EC90 (concentration inhibiting HCV replicon by 90%), CC50 (concentration decreasing cell viability by 50%), CC90 (concentration decreasing cell viability by 90%) and SI (selectivity indices: CC50/EC50 and CC90/EC90) values are derived.
The nature of series [4]: Infectious HCVcc assay, cell viability (CytoTox-1). The note with it: human, Huh7.5 cells infected with cell culture-derived HCV (HCVcc).
Description: as §1

As a reminder, the EC50 is the concentration giving half of the maximal effect. A word on the CC50: it is the concentration at which the toxic effect on the cells reaches its halfway point. Low values mean greater toxicity to the cells, high ones lower toxicity to the cells. For the compound `CC(=O)Oc1cc2c(s1)CCN(C(C(=O)C1CC1)c1ccccc1F)C2.Cl` (racemic) [Prasugrel, 5-[(1RS)-2-cyclopropyl-1-(2-fluorophenyl)-2-oxoethyl]-4,5,6,7-tetrahydrothieno[3,2-c]pyridin-2-yl acetate hydrochloride], the EC50 amounted to 47.1 µM in series [1] (Hepatitis C virus, GT1B, concentration inhibiting HCV replicon by 50%, 72 hours) and 9.71 µM in series [2] (Hepatitis C virus, 72 h). The Selectivity index was 1.88 in series [1] (CC50/EC50) and >10.3 in series [2] (In vitro HCVcc assay, CC50/EC50). In addition, the CC50 at 72 h in series [3] is 88.5 µM; in series [4], > 100 µM.
